The values that follow come from BindingDB's records for doi:10.1016/j.ejmech.2013.06.048 (University of Siena, 2013).

Each structure is given as a SMILES string.

One may read the IC50 as the concentration needed to halve the response being measured. Higher therefore signals lower potency.

This test in a line: Inhibition of estrogen receptor alpha-mediated human MCF7 cell growth inhibition.
In turn, `COc1ccc2c(c1)CC[C@@H]1[C@@H]2CC[C@]2(C)[C@@H](OC(C)=O)CC[C@@H]12` returned an IC50 of 64.9 µM.

In turn, `COc1cc(C(=O)CCc2cc3c(cc2OC)CC[C@@H]2[C@@H]3CC[C@]3(C)[C@@H](O)CC[C@@H]23)ccc1O` showed an IC50 of 64.9 µM.

Compound `COc1cc2c(cc1C=O)[C@H]1CC[C@]3(C)[C@@H](OC(C)=O)CC[C@H]3[C@@H]1CC2` yielded an IC50 of 64.9 µM.
